Consider 14 compounds from ChEMBL document CHEMBL5291721, “A preclinical secondary pharmacology resource illuminates target-adverse drug reaction associations of marketed drugs” (Nat Commun, 2023).

A word on the AC50: it is the midpoint of the concentration-response curve, whichever way the signal moves. Lower therefore signals greater potency.

One assay addresses Histamine H1 receptor (Homo sapiens, UniProt P35367).
Assay [1] concerns the target T1, Progesterone receptor (Homo sapiens, UniProt P06401).
T1 sequence (P06401 whole entry): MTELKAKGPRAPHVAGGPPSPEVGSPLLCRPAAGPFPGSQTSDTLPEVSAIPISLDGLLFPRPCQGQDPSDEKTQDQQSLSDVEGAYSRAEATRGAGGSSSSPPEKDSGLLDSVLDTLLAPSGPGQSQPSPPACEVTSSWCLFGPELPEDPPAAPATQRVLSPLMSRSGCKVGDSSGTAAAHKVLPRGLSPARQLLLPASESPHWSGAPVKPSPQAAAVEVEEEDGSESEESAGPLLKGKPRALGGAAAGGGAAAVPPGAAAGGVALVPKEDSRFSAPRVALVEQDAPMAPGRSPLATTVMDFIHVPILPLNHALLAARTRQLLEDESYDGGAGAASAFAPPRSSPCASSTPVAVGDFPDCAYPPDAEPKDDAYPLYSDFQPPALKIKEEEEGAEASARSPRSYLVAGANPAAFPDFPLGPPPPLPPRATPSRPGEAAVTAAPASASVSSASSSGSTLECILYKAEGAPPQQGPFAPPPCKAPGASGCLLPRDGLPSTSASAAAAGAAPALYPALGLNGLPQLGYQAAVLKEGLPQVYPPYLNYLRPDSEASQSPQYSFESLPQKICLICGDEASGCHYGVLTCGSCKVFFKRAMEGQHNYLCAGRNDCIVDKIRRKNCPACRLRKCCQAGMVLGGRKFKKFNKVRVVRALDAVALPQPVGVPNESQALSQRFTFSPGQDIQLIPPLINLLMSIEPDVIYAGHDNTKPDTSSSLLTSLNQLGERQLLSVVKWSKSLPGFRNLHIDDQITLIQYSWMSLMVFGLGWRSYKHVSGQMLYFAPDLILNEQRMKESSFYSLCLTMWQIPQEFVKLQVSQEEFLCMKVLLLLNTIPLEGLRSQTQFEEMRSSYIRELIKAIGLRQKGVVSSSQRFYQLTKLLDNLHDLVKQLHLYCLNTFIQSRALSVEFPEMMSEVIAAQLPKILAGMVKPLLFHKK
In kind it is functional.

Assay [2] deals with T2, 5-hydroxytryptamine receptor 2C (Homo sapiens, UniProt P28335).
T2 sequence (P28335 whole entry): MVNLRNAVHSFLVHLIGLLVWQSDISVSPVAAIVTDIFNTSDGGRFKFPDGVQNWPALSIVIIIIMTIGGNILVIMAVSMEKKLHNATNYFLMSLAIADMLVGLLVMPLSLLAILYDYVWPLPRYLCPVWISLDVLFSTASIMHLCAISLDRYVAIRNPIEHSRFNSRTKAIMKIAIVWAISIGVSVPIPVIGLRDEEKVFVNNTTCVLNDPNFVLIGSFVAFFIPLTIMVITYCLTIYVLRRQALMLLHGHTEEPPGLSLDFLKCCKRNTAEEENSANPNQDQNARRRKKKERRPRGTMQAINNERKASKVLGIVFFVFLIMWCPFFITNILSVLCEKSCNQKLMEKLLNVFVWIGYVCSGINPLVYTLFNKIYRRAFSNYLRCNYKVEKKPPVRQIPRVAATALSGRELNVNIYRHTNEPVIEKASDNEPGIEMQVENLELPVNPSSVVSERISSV

The target of the next assay is T3, Adenosine receptor A1 (Homo sapiens, UniProt P30542).
T3 sequence (P30542 whole entry): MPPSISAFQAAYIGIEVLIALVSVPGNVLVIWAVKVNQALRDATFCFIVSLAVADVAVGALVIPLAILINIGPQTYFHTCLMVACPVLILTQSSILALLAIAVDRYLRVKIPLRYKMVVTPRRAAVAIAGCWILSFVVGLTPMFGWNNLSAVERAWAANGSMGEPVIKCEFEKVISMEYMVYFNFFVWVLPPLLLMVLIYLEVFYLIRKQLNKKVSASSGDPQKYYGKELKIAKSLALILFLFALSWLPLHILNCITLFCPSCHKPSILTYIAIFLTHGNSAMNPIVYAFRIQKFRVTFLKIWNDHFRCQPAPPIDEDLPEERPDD

Assay [3] has as its target T4, 5-hydroxytryptamine receptor 1A (Homo sapiens, UniProt P08908).
T4 sequence (P08908 whole entry): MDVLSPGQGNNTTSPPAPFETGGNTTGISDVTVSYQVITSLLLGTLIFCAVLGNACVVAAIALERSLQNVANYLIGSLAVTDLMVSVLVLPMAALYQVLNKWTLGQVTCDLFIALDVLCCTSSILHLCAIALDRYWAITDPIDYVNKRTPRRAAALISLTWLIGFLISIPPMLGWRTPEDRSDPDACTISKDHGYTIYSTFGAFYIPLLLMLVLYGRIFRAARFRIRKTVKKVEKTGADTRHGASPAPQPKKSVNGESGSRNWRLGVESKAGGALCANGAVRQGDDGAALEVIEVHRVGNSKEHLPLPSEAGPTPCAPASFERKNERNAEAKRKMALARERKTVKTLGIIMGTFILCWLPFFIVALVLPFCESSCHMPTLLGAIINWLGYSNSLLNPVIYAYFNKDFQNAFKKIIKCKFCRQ
Format: functional, cell-based.

For assay [4], the target named is Beta-1 adrenergic receptor (Homo sapiens, UniProt P08588). In kind it is functional.
In assay [5] the target is T1, Progesterone receptor. Format: functional. The source holds these as a separate data set.
Assay [6] concerns the target T5, Alpha-2B adrenergic receptor (Homo sapiens, UniProt P18089).
T5 sequence (P18089 whole entry): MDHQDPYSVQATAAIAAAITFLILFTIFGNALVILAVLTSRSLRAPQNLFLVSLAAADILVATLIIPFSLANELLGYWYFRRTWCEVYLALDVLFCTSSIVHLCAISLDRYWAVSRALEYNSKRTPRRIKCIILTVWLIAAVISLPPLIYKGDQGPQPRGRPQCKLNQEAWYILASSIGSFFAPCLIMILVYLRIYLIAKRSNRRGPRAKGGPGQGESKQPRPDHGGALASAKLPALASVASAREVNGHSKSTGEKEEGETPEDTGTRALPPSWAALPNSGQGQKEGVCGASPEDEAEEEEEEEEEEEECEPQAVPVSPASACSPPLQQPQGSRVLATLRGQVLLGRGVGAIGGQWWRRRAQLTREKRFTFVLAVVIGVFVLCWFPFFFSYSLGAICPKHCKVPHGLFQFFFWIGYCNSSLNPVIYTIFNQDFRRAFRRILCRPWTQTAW
Note: assay procedure not described here.

Chain of Beta-1 adrenergic receptor (P08588 whole entry): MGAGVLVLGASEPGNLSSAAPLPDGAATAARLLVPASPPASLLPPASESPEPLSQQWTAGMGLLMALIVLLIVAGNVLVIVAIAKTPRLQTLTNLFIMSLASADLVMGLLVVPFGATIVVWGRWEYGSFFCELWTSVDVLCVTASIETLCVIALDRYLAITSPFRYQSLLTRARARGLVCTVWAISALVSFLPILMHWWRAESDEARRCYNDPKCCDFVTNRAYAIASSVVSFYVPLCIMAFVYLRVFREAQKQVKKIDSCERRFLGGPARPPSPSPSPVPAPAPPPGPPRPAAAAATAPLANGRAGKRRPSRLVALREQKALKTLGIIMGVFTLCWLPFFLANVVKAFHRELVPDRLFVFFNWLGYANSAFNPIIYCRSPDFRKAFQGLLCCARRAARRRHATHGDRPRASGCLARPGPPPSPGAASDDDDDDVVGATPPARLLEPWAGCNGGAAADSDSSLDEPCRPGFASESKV
Chain of Histamine H1 receptor (P35367 whole entry): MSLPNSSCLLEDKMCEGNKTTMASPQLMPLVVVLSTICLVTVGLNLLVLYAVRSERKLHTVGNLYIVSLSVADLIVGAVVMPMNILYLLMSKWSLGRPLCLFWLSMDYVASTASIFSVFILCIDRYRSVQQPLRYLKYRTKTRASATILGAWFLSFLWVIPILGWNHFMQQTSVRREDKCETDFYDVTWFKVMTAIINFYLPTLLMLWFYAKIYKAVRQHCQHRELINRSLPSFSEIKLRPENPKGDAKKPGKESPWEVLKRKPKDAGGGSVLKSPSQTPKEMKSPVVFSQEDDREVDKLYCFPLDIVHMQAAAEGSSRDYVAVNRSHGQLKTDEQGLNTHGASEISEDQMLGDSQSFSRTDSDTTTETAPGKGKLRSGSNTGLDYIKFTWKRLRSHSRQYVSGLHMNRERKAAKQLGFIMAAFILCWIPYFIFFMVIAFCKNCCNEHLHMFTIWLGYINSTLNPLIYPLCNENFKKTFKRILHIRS

For the compound `CC(=O)Nc1c(I)c(C(=O)N[C@H]2C(O)O[C@H](CO)[C@@H](O)[C@@H]2O)c(I)c(N(C)C(C)=O)c1I` (some centres not stated) [METRIZAMIDE], the concentration at half-maximal activity (AC50) is more than 10 µM at Histamine H1 receptor; more than 10 µM at Progesterone receptor [1]; more than 30 µM in assay [2]; more than 10 µM on Adenosine receptor A1; more than 10 µM in assay [3]; more than 10 µM in assay [4]. Also, the AC50 (at Progesterone receptor [5]; in assay [6]) was more than 10 µM throughout.

As to `CN(c1nccc(=O)[nH]1)C1CCN(c2nc3ccccc3n2Cc2ccc(F)cc2)CC1` [MIZOLASTINE], the AC50 was more than 30 µM on Histamine H1 receptor; more than 30 µM on Progesterone receptor [1]; more than 10 µM in assay [2]; more than 30 µM at Adenosine receptor A1; more than 30 µM in assay [3]; more than 30 µM in assay [4]. Also, the AC50 (on Progesterone receptor [5]; in assay [6]) was more than 30 µM in each case.

Consider `CCOC(=O)Nc1ccc2c(c1)N(C(=O)CCN1CCOCC1)c1ccccc1S2` [MORICIZINE], for which the AC50 on Histamine H1 receptor is more than 30 µM; at Progesterone receptor [1] it was more than 30 µM; in assay [2], more than 30 µM; at Adenosine receptor A1 it was more than 30 µM; in assay [3], 13 µM; in assay [4] it was more than 30 µM. For the same compound, the AC50 (on Progesterone receptor [5]; in assay [6]) was more than 30 µM each time.

In the case of `CC(=O)O[C@H]1C[C@@H]2CC[C@@H]3[C@H](CC[C@@]4(C)[C@H]3C[C@H]([N+]3(C)CCCCC3)[C@@H]4OC(C)=O)[C@@]2(C)C[C@@H]1[N+]1(C)CCCCC1` [PANCURONIUM], the AC50 was more than 10 µM on Histamine H1 receptor; more than 10 µM on Progesterone receptor [1]; more than 30 µM in assay [2]; more than 10 µM on Adenosine receptor A1; more than 10 µM in assay [3]; more than 10 µM in assay [4]. In addition, the AC50 (at Progesterone receptor [5]; in assay [6]) was more than 10 µM throughout.

Turning to `CC1(C)C(C=C(Cl)Cl)C1C(=O)OCc1cccc(Oc2ccccc2)c1` (configuration not stated) [PERMETHRIN], the AC50 was more than 10 µM at Histamine H1 receptor; more than 30 µM on Progesterone receptor [1]; more than 30 µM in assay [2]; more than 10 µM at Adenosine receptor A1; more than 10 µM in assay [3]; more than 10 µM in assay [4]. The figures for the AC50 (on Progesterone receptor [5]; in assay [6]) were more than 30 µM and more than 10 µM, respectively.

As for `CC[N+]1(C)CCCC(OC(=O)C(O)(c2ccccc2)c2ccccc2)C1` (configuration not stated) [PIPENZOLATE], the AC50 was 27 µM at Histamine H1 receptor; more than 30 µM at Progesterone receptor [1]; more than 30 µM in assay [2]; more than 30 µM on Adenosine receptor A1; more than 30 µM in assay [3]; more than 30 µM in assay [4]. Moreover, the AC50 (at Progesterone receptor [5]; in assay [6]) was more than 30 µM each time.

In the case of `Cc1ccc(=O)n(-c2ccccc2)c1` [PIRFENIDONE], the half-maximal activity concentration (AC50) (at Histamine H1 receptor; at Progesterone receptor [1]; in assay [2]; on Adenosine receptor A1; in assay [3]; in assay [4]) was more than 30 µM throughout. In addition, the concentration at half-maximal activity (AC50) (at Progesterone receptor [5]; in assay [6]) was more than 30 µM in each case.

As to `NC(=O)CCC/N=C(\c1ccc(Cl)cc1)c1cc(F)ccc1O` [PROGABIDE], the AC50 on Histamine H1 receptor is more than 10 µM; on Progesterone receptor [1] it was more than 10 µM; in assay [2] it was more than 30 µM; on Adenosine receptor A1, more than 10 µM; in assay [3], more than 10 µM; in assay [4] it was more than 10 µM. Moreover, the half-maximal activity concentration (AC50) (on Progesterone receptor [5]; in assay [6]) was more than 10 µM throughout.

As to `CCN(CC)CC(=O)Oc1ccc(NC(C)=O)cc1` [PROPACETAMOL], the AC50 (at Histamine H1 receptor; at Progesterone receptor [1]; in assay [2]; at Adenosine receptor A1; in assay [3]; in assay [4]) was more than 30 µM throughout. The half-maximal activity concentration (AC50) (at Progesterone receptor [5]; in assay [6]) was more than 30 µM in each case.

With `CCCOC(C(=O)OC1CCN(C)CC1)(c1ccccc1)c1ccccc1` [PROPIVERINE], the concentration at half-maximal activity (AC50) is 18 µM at Histamine H1 receptor; more than 30 µM at Progesterone receptor [1]; 9.9 µM in assay [2]; more than 30 µM at Adenosine receptor A1; more than 30 µM in assay [3]; more than 30 µM in assay [4]. Also, the concentration at half-maximal activity (AC50) (on Progesterone receptor [5]; in assay [6]) was more than 30 µM each time.

Turning to `Cc1ccc2c(-c3ccccc3)nc(=O)n(C(C)C)c2c1` [PROQUAZONE], the AC50 (on Histamine H1 receptor; at Progesterone receptor [1]; in assay [2]; at Adenosine receptor A1; in assay [3]; in assay [4]) was more than 30 µM throughout. For the same compound, the concentration at half-maximal activity (AC50) (at Progesterone receptor [5]; in assay [6]) was more than 30 µM each time.

As to `CC(NCCc1ccc(O)cc1)C(O)c1ccc(O)cc1` (configuration not stated) [RITODRINE], the concentration at half-maximal activity (AC50) at Histamine H1 receptor was more than 30 µM; on Progesterone receptor [1], more than 30 µM; in assay [2], more than 30 µM; on Adenosine receptor A1 it was more than 30 µM; in assay [3] it was more than 30 µM; in assay [4], 17 µM. In addition, the half-maximal activity concentration (AC50) (at Progesterone receptor [5]; in assay [6]) was more than 30 µM throughout.

Take `CN1CCN(c2c(F)cc3c(=O)c(C(=O)O)cn4c3c2SCC4)CC1` [RUFLOXACIN]: the AC50 (at Histamine H1 receptor; at Progesterone receptor [1]; in assay [2]; at Adenosine receptor A1; in assay [3]; in assay [4]) was more than 30 µM throughout. The half-maximal activity concentration (AC50) at Progesterone receptor [5] was more than 30 µM; in assay [6], 9.8 µM.

Consider `COc1c(O[C@@H]2O[C@H](CO)[C@@H](O)[C@H](O)[C@H]2O)cc2c(c1OC)-c1ccc(SC)c(=O)cc1[C@@H](NC(C)=O)CC2` [THIOCOLCHICOSIDE], for which the concentration at half-maximal activity (AC50) (at Histamine H1 receptor; at Progesterone receptor [1]; in assay [2]; at Adenosine receptor A1; in assay [3]; in assay [4]) was more than 30 µM in each case. For the same compound, the concentration at half-maximal activity (AC50) (at Progesterone receptor [5]; in assay [6]) was more than 30 µM each time.
